According to patent publication US20090124680A1, “USE OF PRODRUG COMPOSITION CONTAINING NAPHTHOQUINONE-BASED COMPOUND FOR MANUFACTURE OF MEDICAMENT FOR TREATMENT OR PREVENTION OF DISEASES INVOLVING METABOLIC SYNDROME” (Mazence Inc., priority 2007, published 2009):

Key:
[1] = Biochemical indices in the blood of C57BL/6 mice after administration; assay type: in vivo; settings: oral, 28 days; Example 14 195 mg/kg, Example 5 65 mg/kg; compared to control group; FIG. 4
Experimental: (§1) 4-week-old C57BL/6 male mice were purchased from Orient BIO Inc. (Korea). Animals were raised for 10 weeks in a breeding room maintained at a temperature of 23° C., 55% humidity, illumination of 300 to 500 lux, a 12-h light/dark (L/D) cycle, and ventilation of 10 to 18 times/hr. Experiments included animals weighing […] or higher. Animals were fed ad libitum a high-fat diet (45 kcal % from fat, D12451, Research Diet) and tap water as drinking water.
(§2) Each group of animals was administered 195 mg/kg of the prodrug compound of Example 14 (hereinafter often simply referred to as “A31”) and 65 mg/kg of the prodrug compound of Example 5 (hereinafter often simply referred to as “A32”) for 4 weeks, as set forth in Table 1 below. Observations were made on changes in body weight and food intake, with respect to a time course of administration. After administration was complete, biochemical indices were assayed including changes in adipose tissue distribution, hepatic functions, and lipid and enzyme levels.
FIGS. 4 and 5 show changes of biochemical indices in the blood of C57BL/6 mice to which the prodrug composition of Example 5 and the prodrug composition of Example 14 were administered.

[2] = Weight loss effects in obese mice: body weight, body weight gain and food intake; assay type: in vivo, C57BL/6 male mice; settings: high-fat diet mice; oral, 28 days; Example 14 195 mg/kg, Example 5 65 mg/kg; compared to control group; FIGS. 1 and 2
Experimental: as §1, §2

Row | Compound | blood levels of GOT/GTP enzymes [1] | body weight (g) [2] | body weight gain (%) [2]
1 | 10,11-diacetoxy-2,6,6-trimethyl-1,2,6,7,8,9-hexahydro-phenanthro[1,2b]furan [Example 14] | decreased | significant reductions | significant reductions
2 | CC(=O)Oc1c2c(c3ccccc3c1OC(C)=O)OC(C)(C)CC2 [Example 5, 5,6-diacetoxy-2,2-dimethyl-3,4-dihydro-2H-benzo[h]chromene] | decreased | excellent weight-loss effects | negative (−) value
